Assays:
[1] = system: mutant FGFR4-driven RMS tumor; set-up: method as in PMID 24124571; conditions: cited from earlier work
RH4 xenograft [2] = experiment: futibatinib single agent xenograft efficacy study; conditions: 5-25 mg/kg daily (SID) oral gavage, three weeks, vs vehicle
RMS559 xenograft [3] = experiment: two-drug combination xenograft efficacy study; conditions: for median survival: futibatinib 15 mg/kg, irinotecan 25 mg/kg, vincristine 0.4 mg/kg, vehicle 23
RMS559 xenograft [4] = experiment: triple combination xenograft efficacy study; type: in vivo, NSG mice; conditions: for median survival: futibatinib 10 mg/kg oral M-F 3 weeks, irinotecan 6 mg/kg iv once, vincristine 0.4 mg/kg iv once, vehicle 11
in vivo = conditions: NOD SCID Gamma (NSG), mouse, plasma, po, 25 mg/kg, 25 mg/kg oral gavage, single dose, SCMC tumor-bearing mice
RH4 xenograft [5] = experiment: two-drug combination xenograft efficacy study; type: in vivo, NSG mice; conditions: futibatinib 15 mg/kg, irinotecan 25 mg/kg, vincristine 0.4 mg/kg, vehicle 39
[6] = system: advanced solid tumors with FGFR aberrations; conditions: 197 patients with advanced solid tumors with FGFR aberrations; cited from earlier work
SCMC xenograft [7] = experiment: two-drug combination xenograft efficacy study; type: in vivo, NSG mice; conditions: for Days (survival, inset of Figure 4): SCMC xenograft, futibatinib 15 mg/kg, irinotecan 50 mg/kg decreased to 25 mg/kg, vincristine 0.4 mg/kg, vehicle 30
[8] = two-drug combination tolerability study; type: in vivo, mice; conditions: futibatinib oral M-F three weeks, irinotecan iv Monday for three weeks, vincristine iv once
Method: Figure A4 Two-drug combination tolerability study. (A) Schematic of tolerability study. […] Irinotecan was given via tail vein injection at two dosages (75 mg/kg and 50 mg/kg) on Monday for three weeks. (B) Relative body weights of mice treated with the futibatinib-vincristine or futibatinib-irinotecan combinations.

[9] = system: phosphorylation of FGFR4 and ERK1/2 in RMS559; experiment: Western blot of RMS559 treated with futibatinib; type: cell-based, human; conditions: increasing concentrations, 6 h
Method: Cells were collected with a cell scraper, then pelleted by centrifugation, washed with ice-cold PBS, and lysed in RIPA buffer with 1% HALT Protease and Phosphatase inhibitors. Lysates were sonicated to shear genomic DNA and clarified by centrifugation at 18,000× g for 20 min. The protein concentration of the resulting supernatant was determined by BCA assay. 20 μg of protein was run on NuPage 4–12% BisTris gels (Invitrogen, Carlsbad, CA, USA) and transferred to PVDF membranes (Invitrogen). Membranes were blocked in 5% nonfat dried milk in TBST for 1 h at room temperature and incubated with primary antibody overnight at 4 °C. HRP-conjugated anti-rabbit secondary antibody was used to probe the primary antibody. Protein was visualized using Amersham ECL Western Blotting Detection Reagent (Amersham, UK). The following antibodies were used: pFGFR4 (ab192589, Abcam, Cambridge, UK), FGFR4 (8562, Cell Signaling Technology (CST), Danvers, MA, USA), pERK1/2 (4370, CST), ERK1/2 (4695, CST), and GAPDH (8884, CST). Relative band intensity was quantified in Image Lab software (Version 5.2.1, Bio-Rad, Philadelphia, PA, USA)

SCMC xenograft [10] = experiment: futibatinib single agent xenograft efficacy study; conditions: 5-25 mg/kg daily (SID) oral gavage, three weeks, vs vehicle
RMS559 xenograft [11] = experiment: futibatinib single agent xenograft efficacy study; conditions: 5-25 mg/kg daily (SID) oral gavage, three weeks, vs vehicle
RMS559 xenograft [12] = system: RMS559 xenograft; set-up: method as in PMID 36097178; conditions: RMS559 xenograft models; twice daily dosing, nude mice; cited from earlier work

| Structure (SMILES) | median survival (RMS559 xenograft [3]) [days] | median survival (RMS559 xenograft [4]) [days] | Days (survival, inset of Figure 4) (RH4 xenograft [5]) [days] | Days (survival, inset of Figure 4) (SCMC xenograft [7]) [days] | maximum tolerated dosages for the drug combinations [8] [mg/kg] | other results |
| --- | --- | --- | --- | --- | --- | --- |
| Cc1ccc(C(=O)Nc2ccc(CN3CCN(C)CC3)c(C(F)(F)F)c2)cc1C#Cc1cnc2cccnn12 [ponatinib] | – | – | – | – | – | effect on tumor growth in mice [1]: inhibit mutant FGFR4-driven RMS tumor growth |
| C=CC(=O)N1CC[C@H](n2nc(C#Cc3cc(OC)cc(OC)c3)c3c(N)ncnc32)C1 [futibatinib] | 23 | 15 | 36 | 33 | 15 | effect in delaying tumor growth or prolonging survival (RH4 xenograft [2]): no significant effect; average tumor volume (RMS559 xenograft [4]; day 11 of treatment, futibatinib 10 mg/kg oral M-F, vehicle 1532): 1072 mm^3; half-life (in vivo): ~4 h; objective response rate (ORR) [6]: 13.7%; phosphorylation of FGFR4 and ERK1/2 (western blot) [9]: inhibited phosphorylation of FGFR4 and a downstream target ERK1/2 in a dose-dependent manner; effect in delaying tumor growth or prolonging survival (SCMC xenograft [10]): no significant effect; effect in delaying tumor growth or prolonging survival (RMS559 xenograft [11]): no significant effect |
| CCc1c2c(nc3ccc(OC(=O)N4CCC(N5CCCCC5)CC4)cc13)-c1cc3c(c(=O)n1C2)COC(=O)[C@]3(O)CC [irinotecan] | 29 | 15 | 51.5 | 48 | 50 | toxicity of dose (SCMC xenograft [7]; irinotecan 50 mg/kg iv on Monday, SCMC xenograft study): toxic |
| COCCNc1cc(NC(=O)N2CCCc3cc(CN4CCN(C)CC4=O)c(C=O)nc32)ncc1C#N [FGF401] | – | – | – | – | – | effect on tumor progression (RMS559 xenograft [12]): effective at delaying tumor progression |
| CC[C@]1(O)C[C@H]2CN(CCc3c([nH]c4ccccc34)[C@@](C(=O)OC)(c3cc4c(cc3OC)N(C=O)[C@H]3[C@@](O)(C(=O)OC)[C@H](OC(C)=O)[C@]5(CC)C=CCN6CC[C@]43[C@@H]65)C2)C1 [vincristine] | 23 | 15 | 41 | 37 | 0.4 | average tumor volume (RMS559 xenograft [3]; day 18 of treatment, futibatinib 15 mg/kg oral M-F 3 weeks, irinotecan 25 mg/kg iv Monday 3 weeks, vincristine 0.4 mg/kg iv once): 1016 mm^3 |
